US20220144881A1, “COMPOUNDS AND METHODS FOR MANUFACTURE OF HYPOMETHYLATING AGENTS” (priority 2020, published 2022)

Test: Effect of relative humidity on polymorphic forms of Compound 10 (monitored by XRPD)
Format: physicochemical
Conditions: for Description of polymorph (stability / conditions of formation): RH = relative humidity; for Form conversion at 97% RH and above: RH of 97% and above; for Stability at 0% RH: relevant condition for storage and further processing; for Form conversion at 33% RH: Form A only after at least 2 weeks
Protocol: Studies were performed to identify the different polymorphic forms of Compound 10 drug substance. Seven polymorphs of Compound 10 in total have been identified (TABLE 1).
Compound 10 is hygroscopic and is therefore packaged and stored at conditions that inhibit moisture uptake. Experiments were performed to understand the effect of relative humidity on various polymorphic forms of Compound 10. Form A and Form B were subjected to increasing relative humidity (TABLE 2) and monitored using XRPD to evaluate polymorphism.
Forms A, B, C, and D were characterized by X-ray powder diffraction (XRPD). XRPD diffractograms were collected with a PANalytical X'Pert PRO MPD® diffractometer using an incident beam of Cu radiation produced using an Optix long, fine-focus source. An elliptically graded multilayer mirror was used to focus Cu Kα X-rays through the specimen and onto the detector. Prior to the analysis, a silicon specimen (NIST SRM 640e) was analyzed to verify the observed position of the Si 111 peak is consistent with the NIST-certified position. For the determination of solid forms under the environmental conditions surveyed in EXAMPLE 6, samples of Compound 10 were stored within environmental chambers maintained at specific relative humidity conditions. A specimen of the sample was sandwiched between 3-μm-thick Etnom® films within these environmental chambers. Once prepared, the test article was removed from the environmental chamber and analyzed in transmission geometry without undue delay. A beam-stop, short antiscatter extension, and antiscatter knife edge were used to minimize the background generated by air. Soller slits for the incident and diffracted beams were used to minimize broadening from axial divergence. Diffraction patterns were collected using a scanning position-sensitive detector (X'Celerator) located 240 mm from the specimen and Data Collector software v. 2.2b.

Structure (SMILES): Nc1ncn([C@H]2CC(OP(=O)([O-])OC[C@H]3O[C@@H](n4cnc5c(=O)[nH]c(N)nc54)CC3O)[C@@H](CO)O2)c(=O)n1.[Na+] (some centres unmarked) [Form L, guadecitabine sodium]
- Description of polymorph (stability / conditions of formation): Formed from Form A at 97% RH

Structure (SMILES): Nc1ncn([C@H]2C[C@H](OP(=O)([O-])OC[C@H]3O[C@@H](n4cnc5c(=O)[nH]c(N)nc54)C[C@@H]3O)[C@@H](CO)O2)c(=O)n1.[Na+] [Form K, guadecitabine sodium]
- Description of polymorph (stability / conditions of formation): Formed from Form A at 58% RH
- Form conversion at 97% RH and above: converted to Form L

Structure (SMILES): Nc1ncn([C@H]2C[C@H](OP(=O)([O-])OC[C@H]3O[C@@H](n4cnc5c(=O)[nH]c(N)nc54)C[C@@H]3O)[C@@H](CO)O2)c(=O)n1.[Na+] [Form B, guadecitabine sodium]
- Stability at 0% RH: stable
- Form conversion at 33% RH (33% RH): converted to Form H
- Polymorph observed at 97% RH (97% relative humidity, XRPD): Mesophase
- Description of polymorph (stability / conditions of formation): Stable form at 0% RH
- Form obtained on increasing RH (RH increased beyond 33%): formation of Form D
- Form conversion at 97% RH and above: deliquescence to afford a mesophase

Structure (SMILES): Nc1ncn([C@H]2C[C@H](OP(=O)([O-])OC[C@H]3O[C@@H](n4cnc5c(=O)[nH]c(N)nc54)C[C@@H]3O)[C@@H](CO)O2)c(=O)n1.[Na+] [Form H, guadecitabine sodium]
- Description of polymorph (stability / conditions of formation): Formed from Form B at 33% RH

Structure (SMILES): Nc1ncn([C@H]2C[C@H](OP(=O)([O-])OC[C@H]3O[C@@H](n4cnc5c(=O)[nH]c(N)nc54)C[C@@H]3O)[C@@H](CO)O2)c(=O)n1.[Na+] [Form A, guadecitabine sodium]
- Stability at 0% RH: stable
- Duration of stability at 33% RH (33% RH): at least 2 weeks
- Form conversion at 33% RH (33% RH): converted to Form K
- Description of polymorph (stability / conditions of formation): Stable form at 0% RH

Structure (SMILES): Nc1ncn([C@H]2C[C@H](OP(=O)([O-])OC[C@H]3O[C@@H](n4cnc5c(=O)[nH]c(N)nc54)C[C@@H]3O)[C@@H](CO)O2)c(=O)n1.[Na+] [Form C, guadecitabine sodium]
- Description of polymorph (stability / conditions of formation): Formed from ethanolic slurry of Form A

Structure (SMILES): Nc1ncn([C@H]2C[C@H](OP(=O)([O-])OC[C@H]3O[C@@H](n4cnc5c(=O)[nH]c(N)nc54)C[C@@H]3O)[C@@H](CO)O2)c(=O)n1.[Na+] [Compound 10, guadecitabine sodium]
- Hygroscopicity: hygroscopic

Structure (SMILES): Nc1ncn([C@H]2CC(OP(=O)([O-])OC[C@H]3O[C@@H](n4cnc5c(=O)[nH]c(N)nc54)CC3O)[C@@H](CO)O2)c(=O)n1.[Na+] (some centres unmarked) [Form D, guadecitabine sodium]
- Description of polymorph (stability / conditions of formation): Formed from Form B at 58% RH
